This note sets out measurements from US7119256B2, “Gene encoding acetolactate synthase” (priority 2000, dated 2006).

Structures are written as SMILES. pIC50: −log10 of the molar value.

The test system of assay [1] is mutant ALS protein. Description: Herbicide sensitivity of ALS partially purified from the resistant mutant (acetoin colorimetric ALS activity). In kind it is biochemical, rice (Kinmaze). The procedure: (§1) First, 200 g or more of resistant mutant was prepared by a liquid culture method (no supplementation with bispyribac-sodium), the culture having a composition as shown in Table 1 but without Gelrite. Then, about 150 g of the resistant mutant was homogenized using Hiscotron in a volume of buffer-1 [100 mM potassium phosphate buffer (pH 7.5) containing 20% (v/v) glycerol, 0.5 mM thiamin pyrophosphate (TPP), 10 μM flavin adenine dinucleotide (FAD), 0.5 mM MgCl2, and a volume of polyvinyl polypyrrolidone one-tenth that of tissue volume] 3-fold greater than tissue volume. The homogenate was filtered through nylon gauze, and then centrifuged at 15,000×g for 20 min. Ammonium sulfate was added to the centrifuged supernatant to 50% saturation, and then allowed to stand in ice for approximately 1 hour. The mixture was again centrifuged at 15,000×g for 20 min, and then the precipitated fraction was dissolved in about 30 ml of buffer-2 [10 mM Tris hydrochloric acid buffer (pH 7.5) containing 20% (v/v) glycerol, 0.5 mM TPP and 0.5 mM MgCl2]. […]
(§2) Next, the protein concentration of the crude enzyme solution was measured by the Bradford method according to the manual of Bio-Rad Protein Assay. […]
(§3) ALS activity resulting from the mutant ALS protein contained in the eluted fractions apportioned into each test tube for apportion was measured as follows. A reaction solution to be used in a measurement reaction was prepared by mixing an eluted fraction to be measured with a solution comprising 20 mM sodium pyruvate, 0.5 mM TPP, 0.5 mM MgCl2, 10 μM FAD and 20 mM potassium phosphate buffer (pH 7.5). […] After the eluted fraction to be measured was added, the measurement reaction was performed at 30° C. for 40 to 60 min. […]
(§4) Then, to quantify acetoin contained in the reaction solution, 1 ml of 0.5% (w/v) creatine and 1 ml of 5% (w/v) α-naphthol dissolved in 2.5 N sodium hydroxide was added to the reaction solution, followed by incubation at 37° C. for 10 min. Acetoin was then quantified by color comparison of the absorbance (at 525 nm) of the reaction solution, thereby evaluating ALS activity. […]

In assay [2] the target is mutant ALS protein (Oryza sativa subsp. japonica, UniProt Q6K2E8, S627I/W548L). The assay is described as above. Set-up: from tissue; host or cells: resistant mutant rice (Kinmaze) cultured cells, liquid culture; ammonium sulfate, Sephadex G-25, HiTrap Q. The class given is biochemical, rice (Kinmaze). The procedure:
as §1, §2, §3, §4

Assay [3] concerns the target T1, S627I mutant ALS (Oryza sativa subsp. japonica, UniProt Q6K2E8, S627I).
T1 construct: one type of cDNA containing a full length ALS gene could be obtained from a cDNA library derived from the wild type; made in house; host or cells: E. coli JM 109, pGEX-2T backbone; crude enzyme solution
As to the kind of experiment: Herbicide sensitivity of crude ALS with S627I mutation only, 1 mM valine. The class given is biochemical, rice. To be noted: crude enzyme. As for the experimental part: A plasmid having W548L mutant ALS gene or a plasmid having S627I mutant ALS gene was transformed into E. coli strain JM 109. The colonies obtained from transformation were subjected to liquid culture, expression of GST induction protein was induced in the same manner as in Examples 4 and 5, a crude enzyme solution was prepared, and then herbicide sensitivity of ALS was examined in the presence of 1 mM valine.

The target of assay [4] is T2, wild type ALS protein (Oryza sativa subsp. japonica, UniProt Q6K2E8).
T2 sequence (Q6K2E8 44-644): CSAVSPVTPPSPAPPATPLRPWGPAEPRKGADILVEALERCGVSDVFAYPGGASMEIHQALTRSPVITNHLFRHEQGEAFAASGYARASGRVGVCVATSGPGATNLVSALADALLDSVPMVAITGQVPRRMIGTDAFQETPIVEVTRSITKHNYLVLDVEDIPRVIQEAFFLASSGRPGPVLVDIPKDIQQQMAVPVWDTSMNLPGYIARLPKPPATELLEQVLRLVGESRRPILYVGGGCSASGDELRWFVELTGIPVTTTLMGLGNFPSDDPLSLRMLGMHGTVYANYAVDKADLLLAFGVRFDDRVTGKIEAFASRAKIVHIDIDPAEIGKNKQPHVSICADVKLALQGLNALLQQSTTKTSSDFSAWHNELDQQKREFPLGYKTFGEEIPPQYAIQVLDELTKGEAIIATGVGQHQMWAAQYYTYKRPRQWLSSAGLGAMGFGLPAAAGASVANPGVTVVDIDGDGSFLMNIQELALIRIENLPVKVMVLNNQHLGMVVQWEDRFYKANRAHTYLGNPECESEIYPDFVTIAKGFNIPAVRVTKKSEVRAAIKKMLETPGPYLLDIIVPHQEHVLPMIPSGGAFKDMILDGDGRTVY
Description: Herbicide sensitivity of partially purified wild type ALS protein (acetoin colorimetric ALS activity). In kind it is biochemical, rice (Kinmaze). Also noted: the wild type ALS protein was separated and purified in the same manner and used for the experiment; from tissue; host or cells: wild type rice (Kinmaze) cultured cells, liquid culture; ammonium sulfate, Sephadex G-25, HiTrap Q.

T1 sequence (Q6K2E8 44-644 S627I): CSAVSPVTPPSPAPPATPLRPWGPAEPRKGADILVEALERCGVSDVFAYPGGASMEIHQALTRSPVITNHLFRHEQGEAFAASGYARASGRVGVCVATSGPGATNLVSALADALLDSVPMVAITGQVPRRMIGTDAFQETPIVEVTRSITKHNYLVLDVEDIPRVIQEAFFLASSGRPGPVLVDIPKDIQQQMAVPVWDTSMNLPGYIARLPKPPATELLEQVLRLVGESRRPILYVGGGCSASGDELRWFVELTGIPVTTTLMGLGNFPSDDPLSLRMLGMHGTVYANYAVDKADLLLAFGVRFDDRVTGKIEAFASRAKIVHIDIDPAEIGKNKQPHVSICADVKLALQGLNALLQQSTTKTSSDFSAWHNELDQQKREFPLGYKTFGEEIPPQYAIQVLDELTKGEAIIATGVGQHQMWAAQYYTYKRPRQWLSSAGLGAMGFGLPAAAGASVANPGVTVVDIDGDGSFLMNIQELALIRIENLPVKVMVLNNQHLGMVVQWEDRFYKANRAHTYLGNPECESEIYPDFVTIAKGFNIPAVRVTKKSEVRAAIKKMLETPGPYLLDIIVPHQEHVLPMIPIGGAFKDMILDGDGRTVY
mutant ALS protein (Oryza sativa subsp. japonica, UniProt Q6K2E8, S627I/W548L), sequence (Q6K2E8 44-644 W548L/S627I): as the sequence (Q6K2E8 44-644 S627I) above, with W505L counted along it

As to `COc1nc(C)nc(NC(=O)NS(=O)(=O)c2ccccc2Cl)n1` [Chlorsulfuron, chlorsulfuron], the “RS ratio Resistant mutant: I50 (resistant mutant)/I50 (wild type)” value in assay [1] amounted to 5.36. Moreover, the figures for the pIC50 in assay [2] and in assay [4] were 7.03 and 7.76, respectively. In addition, the “resistance imparted by S627I mutation alone” value in assay [3] is reported as “imparted no obvious resistance”.

On to `COc1cc(OC)nc(Oc2cccc(Oc3nc(OC)cc(OC)n3)c2C(=O)[O-])n1.[Na+]` [Bispyribac-sodium, bispyribac-sodium], for which, in assay [1], the “RS ratio Resistant mutant: I50 (resistant mutant)/I50 (wild type)” value amounted to 74.8. The pIC50 (in general, −log10 of the IC50, conventionally taken in molar units) in assay [2] was 6.38; in assay [4] it was 8.25. Further, the “resistance imparted by S627I mutation alone” value in assay [3] is recorded as “imparted resistance”.
